The subject of experiment [1] is ginsenoside glycosidases from A. niger. The experiment can be described thus: Hydrolysis of ginsenosides with crude ginsenoside glycosidases from A. niger, products measured by TLC. It counts as biochemical, Aspergillus niger. Particulars: for effect of metal ions on the enzyme reaction: hydrolysis of Rb1, pH 5.0, 30°C. The method, then: Aspergillus niger FFCCDL-48 g was cultured in a medium containing 1% ginseng extracts and 3% wheat bran extracts at 30° C. for 54 hours. Cells were removed by centrifugation, after which (NH4)2SO4 powder was added to 2000 ml of the cell-free supernatant with stirring to 65% saturation. The solution was stored overnight at 4° C. and precipitated proteins were collected by centrifugation, resuspended in 80 ml of distilled water and dialyzed against 0.01M acetate buffer pH 5. Insolubles were removed by centrifugation, and the solution was adjusted to 200 ml with 0.01 M acetate buffer pH 5. The crude enzyme solution may be used to hydrolyze ginsenosides or to purify the enzymes.
100 mg each of ginsenosides Rb1, Rb2, Rc and Rd and 10 mg of ginsenoside Rg3 were dissolved in separate tubes containing 10 ml of 0.01M acetate buffer pH 5. 10 ml of the crude enzyme solution obtained in 1.1 was added to each tube and allowed to react at 30° C. for 18 hours. Then 10 ml of n-butanol was added to stop the reactions. The products were measured by thin layer chromatography (TLC) (Silica gel 60-F254, Merck; chloroform:methanol:water 70:30:5).
Experiments were carried out to explore the effects of temperature, pH, metal ions and reaction time on the enzyme reaction, in order to further characterize the enzymes.
100 mg of ginsenoside Rb1 was used in a reaction under the conditions as described in 1.2 and the effect of temperature was shown in Table 2.

In experiment [2] the test system is ginsenoside glycosidase III from ginseng plant. Description: Hydrolysis of Rd with fraction 37 (ginsenoside glycosidase III) from ginseng plant. Type of experiment: biochemical. To be noted: ginsenoside glycosidase III from ginseng plant. How it is done:
(§1) 200 g of fresh ginseng root was cut into pieces and added to 600 ml of 0.02 M acetate buffer pH 5. Supernatant was obtained by filtration after the mixture stand at 40° C. for 2 hours. To the supernatant (NH4)2SO4 was added gradually until 70% saturation and the mixture stand overnight at 4° C. Then protein pellets were collected by centrifugation and redissolved in 15 ml of distilled water. The solution was dialyzed against 0.02 M Tris-HCl pH 7.4. Insolubles were removed by centrifugation and the volume of the supernatant was adjusted to 20 ml.
(§2) 5 ml of the enzyme solution was subjected to a DEAE-Cellulose DE-25 column (Whatman, 1.4×6.7 cm). The column was eluted with a KCl gradient (0.06, 0.12, 0.18 and 0.24 M) in 0.02 M Tris-HCl pH 7.4. After elution, each fraction was tested for the activity of hydrolyzing ginsenosides. […] Fraction 52 can also hydrolyze the glucosidic bond at the twentieth carbon atom of Rb and Rc to give ginsenoside F2.

In experiment [3] the test system is ginsenoside glycosidase I from ginseng plants. Description: Hydrolysis of ginsenosides with fraction 52 (ginsenoside glycosidase I) from ginseng plant. Type of experiment: biochemical. Particulars: for effect of metal ion on the enzyme: ginsenoside glycosidase I from ginseng plant. How it is done:
as §1, §2

Experiment [4] deals with ginsenoside glycosidases from wheat bran. Description: Hydrolysis of ginsenosides with ginsenoside glycosidases from wheat bran. Type of experiment: biochemical. How it is done:
500 g of wheat bran was added to 2500 ml of 0.02 M acetate buffer pH 5 and extracted at 40° C. for 2 hours. 2000 ml of supernatant were obtained by filtration to which (NH4)2SO4 was added gradually with stirring until 70% saturation. The mixture stand at 4° C. overnight. Protein pellets were collected by centrifugation and redissolved in 80 ml of distilled water and dialyzed against 0.02 M acetate buffer pH 5.0. Insolubles were removed by centrifugation and the supernatant was adjusted to a volume of 200 ml to obtain the crude enzyme solution.
10 ml of the enzyme solution was allowed to react with 10 ml of 1% ginsenoside substrate at 40° C. for 20 hours.

The subject of experiment [5] is ginsenoside glycosidases from A. oryzae. The experiment can be described thus: Hydrolysis of ginsenosides with crude ginsenoside glycosidases from A. oryzae, TLC. It counts as biochemical, Aspergillus oryzae. To be noted: pH 5.0, 30° C., 18 hours. The method, then: Aspergillus oryzae FFCCDL-39 g (available from Food Fermentation Culture Collection of Dalian Institute of Light Industry) was cultured with stirring in a medium containing 1% ginseng extracts and 3% wheat bran extracts at 30° C. for 64 hours. Cells were removed by centrifugation, after which (NH4)2SO4 powder was added to 2000 ml of the cell-free supernatant with stirring to 65% saturation. The solution was stored overnight at 4° C. and precipitated proteins were collected by centrifugation, resuspended in 80 ml of distilled water and dialyzed against 0.01M acetate buffer pH 5. Insolubles were removed by centrifugation, and the solution was adjusted to 200 ml with 0.01 M acetate buffer pH 5. The crude enzyme solution may be used to hydrolyze ginsenosides or to purify the enzymes.
Each 100 mg of ginsenosides Rb1, Rb2, Rc Re and Rd and each 10 mg of ginsenoside Rg3 and Rg2 were dissolved in separate tubes containing 10 ml of 0.01M acetate buffer pH 5. 10 ml of the crude enzyme solution obtained as above was added to each tube and allowed to react at 30° C. for 18 hours. Then 10 ml of n-butanol was added to stop the reactions. The products were measured by thin layer chromatography (TLC) (Silica gel 60-F254, Merck; chloroform:methanol:water 70:30:5). […]

In experiment [6] the test system is ginsenoside glycosidase I. The experiment can be described thus: Hydrolysis of ginsenosides with Fraction 36 (ginsenoside glycosidase I). To be noted: Fraction 36; substrates Rb1, Rb2, Rc, Rd 0.5%; Rg3, F2, Rh2, C—K, Rg2 0.05%; pH 5.0, 30° C. Type of experiment: biochemical, Aspergillus niger. How it is done: 10 ml of the enzyme solution obtained in 1.1 was subjected to a DEAE-Cellulose DE-52 column (Pharamcia, 1.5×6.7 cm) to absorb the enzyme protein. The column was then eluted with a NaCl gradient (0.06, 0.12, 0.18, 0.24, 0.3, 0.4, 0.5 and 0.6M).
Fractions 36 and 54 from the DEAE-Cellulose column appeared as one dot on a SDS-polyacrylamide gel, representing the purified enzymes.
Fraction 36 which was eluted with 0.12 M NaCl from the DEAE-Cellulose column was lyophilized and appeared as a single dot with a molecular weight of 51,000 Daltons when running on a SDS-polyacrylamide gel.
To observe the differences between the ginsenoside glycosidases of the invention and known exo-cellulases, the ginsenoside glycosidases of the invention were compared with cellulose β-glucosidase (E.C. 3.2.1.21) in two reactions with 0.5% ginsenosides Rb1 or Rd as substrate.

[7] abbreviates: Fraction 52, substrate 0.5%, 50° C., pH 5.0, 18 hours.
[8] abbreviates: 10 ml of 1% ginsenoside substrate, 40° C., 20 hours.

SMILES strings stand for the structures.

For the compound `[Cu+2]` [Cu^++], the “effect of metal ions on the enzyme reaction” value in experiment [1] is “inhibit the reaction”. Moreover, the “effect of metal ion on the enzyme” value in experiment [2] and in experiment [3] was “inhibitory effect” throughout. Also, the “effect of metal ion on the enzyme activity” value in experiment [4] (enzymes from wheat bran) is “inhibitory effect”.

On to `[Ca+2]` [Ca^++], for which the “effect of metal ions on the enzyme reaction” value in experiment [1] is “slightly accelerate the conversion rate”. Moreover, the “effect of metal ion on the enzyme” value in experiment [2] and in experiment [3] was “enhancing effect” throughout.

In the case of `CC(C)=CCC[C@](C)(O[C@@H]1O[C@H](CO[C@@H]2O[C@@H](CO)[C@H](O)[C@H]2O)[C@@H](O)[C@H](O)[C@H]1O)[C@H]1CC[C@]2(C)[C@@H]1[C@H](O)C[C@@H]1[C@@]3(C)CC[C@H](O[C@@H]4O[C@H](CO)[C@@H](O)[C@H](O)[C@H]4O[C@@H]4O[C@H](CO)[C@@H](O)[C@H](O)[C@H]4O)C(C)(C)[C@@H]3CC[C@]12C` [Rc, ginsenoside Rc], in experiment [5], the “Percentage of C—K in the reaction product” value (“Percentage of C—K” for short) is recorded as 56%, the “Percentage of F2 in the reaction product” value was 30%, the “Percentage of Rd in the reaction product” value was 19% and the “Percentage of aglycone in the reaction product” value (from here on “Percentage of aglycone”) came out at 5%. For the same compound, in experiment [1] (pH 5, 30° C., 18 hours), the “Percentage of C—K” value was determined as 15%, the “Percentage of F2 in the reaction product” value amounted to 58%, the “Percentage of Rc in the reaction product” value worked out at 8% and the “Percentage of Rd in the reaction product” value is given as 12%. For the same compound, in experiment [1] (pH 5, 30° C., 18 hours), the “Percentage of Rh2 in the reaction product” value turned out to be 2% and the “Percentage of aglycone” value is given as 5%. Besides, in experiment [6], the “Percentage of C—K” value is listed as 52%, the “Percentage of F2 in the reaction product” value is 36%, the “Percentage of Rd in the reaction product” value is 8% and the “Percentage of Rh2 in the reaction product” value stood at 2%. The “Percentage of aglycone” value in experiment [6] amounted to 2%. In addition, in experiment [3] (setting [7]), the “Percentage of F2 in the reaction product” value stood at 55% and the “Percentage of Rd in the reaction product” value was found to be 45%. Besides, in experiment [4] (setting [8]), the “Percentage of F2 in the reaction product” value was 55% and the “Percentage of Rd in the reaction product” value stood at 43%.
